Experiments:
[1] = molecular target: T1, human ether-a-go-go related gene (hERG) channel (Homo sapiens, UniProt Q12809); test: hERG test; type: cell-based; details: HEK293 cells expressing hERG channel, whole cell patch clamp, 10 minutes, concentration not given
T1 construct: expressed in transfected cells; host or cells: HEK293
Description: For the purpose of assessing risk of an electrocardiogram QT interval prolongation, effects on delayed rectifier K+ current (IKr), which plays an important role in the ventricular repolarization process, of the compound of the present invention was studied using HEK293 cells expressing human ether-a-go-go related gene (hERG) channel.
A cell was retained at a membrane potential of −80 mV by whole cell patch clamp method using an automated patch clamp system (PatchXpress 7000A, Axon Instruments Inc.) and leakage potential at −50 mV was generated. IKr induced by depolarization pulse stimulation at +40 mV for 2 seconds and, further, repolarization pulse stimulation at −50 mV for 2 seconds was recorded. […] From the recording IKr, an absolute value of the tail peak current was measured based on the current value at the resting membrane potential using an analysis software (DataXpress ver.1, Molecular Devices Corporation). Further, the % inhibition relative to the tail peak current before application of the compound of the present invention was calculated, and compared with the vehicle-applied group (0.1% dimethyl sulfoxide solution) to assess influence of the compound of the present invention on IKr.

CYP3A4 = CYP3A4 (Homo sapiens, UniProt P08684); test: CYP inhibition test (CYP3A4); type: in vitro ADME; design: enzyme, pooled human hepatic microsome 0.2 mg protein/mL; from tissue; details: pooled human hepatic microsome 0.2 mg protein/mL, 15 minutes, 37° C.; read-out: IC50 CYP3A4 (terfenedine hydroxylation)
Description: Using commercially available pooled human hepatic microsome, and employing, as markers, 7-ethoxyresorufin O-deethylation (CYP1A2), tolbutamide methyl-hydroxylation (CYP2C9), mephenyloin 4′-hydroxylation (CYP2C19), dextromethorphan O-demethylation (CYP2D6), and terfenedine hydroxylation (CYP3A4) as typical substrate metabolism reactions of human main five CYP enzyme forms (CYP1A2, 2C9, 2C19, 2D6, 3A4), an inhibitory degree of each metabolite production amount by a compound of the present invention was assessed. […] After the centrifugation at 3000 rpm for 15 minutes, resorufin (CYP1A2 metabolite) in the supernatant was quantified by a multi-label counter and hydroxytolbutamide (CYP2C9 metabolite), 4′-hydroxymephenyloin (CYP2C19 metabolite), dextrorphan (CYP2D6 metabolite), and terfenadine alcohol metabolite (CYP3A4 metabolite) were quantified by LC/MS/MS. Addition of only DMSO being a solvent dissolving a compound to a reaction system was adopted as a control (100%), remaining activity (%) was calculated and IC50 was calculated by reverse presumption by a logistic model using a concentration and an inhibition rate.

Recombinant human BACE-1 = molecular target: T2, Recombinant human BACE-1 (Homo sapiens, UniProt P56817); test: Assay of BACE1 inhibitory activity; type: biochemical; details: Recombinant human BACE1 7.4 nmol/L, substrate peptide 18 nmol/L, pH 5.0, 30° C. for 3 hours; read-out: IC50 (50% inhibitory concentration against the enzymatic activity)
T2 construct: purchased R&D Systems
Experimental: 48.5 μL of substrate peptide solution (Biotin-XSEVNLDAEFRHDSGC-Eu: X=ε-amino-n-capronic acid, Eu=Europium cryptate) was added to each well of 96-hole half-area plate (a black plate: Costar), and after addition of 0.5 μl of the compound of the present invention (N,N′-dimethylformamide solution) and 1 μl of Recombinant human BACE-1 (R&D Systems), the reaction mixture was incubated at 30° C. for 3 hours. The substrate peptide was synthesized by reacting Cryptate TBPCOOH mono SMP (CIS bio international) with Biotin-XSEVNLDAEFRHDSGC (Peptide Institute, Inc.). The final concentrations of the substrate peptide and Recombinant human BACE1 were adjusted to 18 nmol/L and 7.4 nmol/L, respectively, and the reaction was performed in sodium acetate buffer (50 mmol/L sodium acetate, pH 5.0, 0.008% Triton X-100). After the incubation for reaction, 50 μl of 8.0 μg/ml Streptavidin-XL665 (CIS bio international) dissolved in phosphate buffer (150 mmol/L K2HPO4—KH2PO4, pH 7.0, 0.008% Triton X-100, 0.8 mol/L KF) was added to each well and left stand at 30° C. for 1 hour. After then, fluorescence intensity was measured (excitation wavelength: 320 nm, measuring wavelength: 620 nm and 665 nm) using Wallac 1420 multilabel counter (Perkin Elmer life sciences). Enzymatic activity was determined from counting ratio of each wavelength (10,000×Count 665/Count 620) and 50% inhibitory concentration against the enzymatic activity (IC50) was calculated.

CYP3A4, sequence (P08684 whole entry): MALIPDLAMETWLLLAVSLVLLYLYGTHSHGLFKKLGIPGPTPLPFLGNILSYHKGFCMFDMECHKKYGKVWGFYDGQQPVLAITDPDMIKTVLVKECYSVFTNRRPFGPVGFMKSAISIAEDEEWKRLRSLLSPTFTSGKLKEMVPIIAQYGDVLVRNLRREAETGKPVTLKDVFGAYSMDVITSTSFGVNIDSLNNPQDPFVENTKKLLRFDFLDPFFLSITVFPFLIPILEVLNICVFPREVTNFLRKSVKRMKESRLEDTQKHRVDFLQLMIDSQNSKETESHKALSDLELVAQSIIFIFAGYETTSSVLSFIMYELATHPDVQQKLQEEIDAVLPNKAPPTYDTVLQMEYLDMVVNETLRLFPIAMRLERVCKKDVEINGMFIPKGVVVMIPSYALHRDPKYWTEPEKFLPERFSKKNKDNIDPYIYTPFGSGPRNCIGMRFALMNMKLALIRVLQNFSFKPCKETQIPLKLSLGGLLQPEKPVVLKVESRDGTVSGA
T1 sequence (Q12809 whole entry): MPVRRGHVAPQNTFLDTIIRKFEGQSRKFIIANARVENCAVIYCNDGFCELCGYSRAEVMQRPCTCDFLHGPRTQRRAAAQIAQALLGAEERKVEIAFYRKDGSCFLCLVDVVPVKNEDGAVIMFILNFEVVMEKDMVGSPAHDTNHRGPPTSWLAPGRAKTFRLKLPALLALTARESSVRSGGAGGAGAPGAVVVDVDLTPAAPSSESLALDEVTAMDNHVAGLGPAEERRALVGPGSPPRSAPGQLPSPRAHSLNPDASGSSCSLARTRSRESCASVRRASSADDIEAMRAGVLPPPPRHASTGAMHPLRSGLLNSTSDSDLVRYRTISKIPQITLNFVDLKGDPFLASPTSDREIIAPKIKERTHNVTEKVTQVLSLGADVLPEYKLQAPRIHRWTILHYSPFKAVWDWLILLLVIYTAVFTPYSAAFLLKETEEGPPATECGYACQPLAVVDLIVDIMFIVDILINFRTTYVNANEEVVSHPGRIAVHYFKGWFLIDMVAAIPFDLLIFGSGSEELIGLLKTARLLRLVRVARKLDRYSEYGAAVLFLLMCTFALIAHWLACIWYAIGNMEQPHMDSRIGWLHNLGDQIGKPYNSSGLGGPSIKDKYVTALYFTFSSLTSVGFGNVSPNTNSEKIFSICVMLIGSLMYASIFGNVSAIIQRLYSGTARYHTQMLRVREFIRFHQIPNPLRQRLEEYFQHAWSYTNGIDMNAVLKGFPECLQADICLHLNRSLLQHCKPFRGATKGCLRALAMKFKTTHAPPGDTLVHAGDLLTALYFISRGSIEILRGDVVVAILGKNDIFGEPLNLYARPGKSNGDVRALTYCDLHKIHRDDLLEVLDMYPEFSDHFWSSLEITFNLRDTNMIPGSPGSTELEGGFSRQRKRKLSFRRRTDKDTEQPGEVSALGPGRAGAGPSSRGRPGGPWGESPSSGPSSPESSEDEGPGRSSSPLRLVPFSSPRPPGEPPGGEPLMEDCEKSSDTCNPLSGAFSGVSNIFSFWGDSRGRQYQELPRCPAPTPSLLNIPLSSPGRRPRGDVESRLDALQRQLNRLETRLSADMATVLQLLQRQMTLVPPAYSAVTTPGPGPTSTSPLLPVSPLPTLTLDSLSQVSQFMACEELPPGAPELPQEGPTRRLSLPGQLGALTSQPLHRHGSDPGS
T2 sequence (P56817 46-501): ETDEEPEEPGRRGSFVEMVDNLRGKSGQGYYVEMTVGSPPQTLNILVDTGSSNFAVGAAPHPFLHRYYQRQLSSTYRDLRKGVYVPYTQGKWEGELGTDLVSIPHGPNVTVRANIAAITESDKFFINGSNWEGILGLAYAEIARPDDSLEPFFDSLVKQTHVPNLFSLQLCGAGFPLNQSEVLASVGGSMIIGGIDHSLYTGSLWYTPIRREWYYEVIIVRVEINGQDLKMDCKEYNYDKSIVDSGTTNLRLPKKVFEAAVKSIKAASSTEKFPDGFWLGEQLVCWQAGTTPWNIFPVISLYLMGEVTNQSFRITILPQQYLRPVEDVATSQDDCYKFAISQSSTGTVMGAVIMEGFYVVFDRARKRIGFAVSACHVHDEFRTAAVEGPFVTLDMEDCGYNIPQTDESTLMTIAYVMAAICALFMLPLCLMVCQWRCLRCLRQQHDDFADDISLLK

Q: How did the “% inhibition of IKr tail peak current” value [1] turn out when `C[C@@]1(c2cc(-c3cccnc3F)ccc2F)Cc2nccn2C(N)=N1` [Compound I-2] was run?
A: Its value is 12.3%.

Q: What about the IC50 (CYP3A4) of the same molecule?
A: The IC50 was over 20 µM.

Q: And the IC50 (Recombinant human BACE-1)?
A: The IC50 was at most 1 µM.
